In article PMC7497086, “Fluorophore‐Labeled Cyclic Nucleotides as Potent Agonists of Cyclic Nucleotide‐Regulated Ion Channels” (Chembiochem, 2020):
“And” between values parts separate entries of the source, which are not always exact repeats. Identical values can stand only once. “Also recorded” adds a separate entry of the source.

What was measured:
Assay type in all cases: biochemical
[1] = biological target: T1, Heterotetrameric CNGA2:A4:B1b channels (Rattus norvegicus, UniProt A0A8I5ZN27+Q00195+Q64359); assay: Patch-clamp activation of heterotetrameric olfactory CNGA2:A4:B1b channels, inside-out patches of Xenopus oocytes; conditions: for H a (Hill coefficient of activation) / EC50: inside-out patches, +10 mV; for EC50: concentration of half maximum activation
T1 construct: expressed in transfected cells; host or cells: Xenopus laevis oocytes injected with cRNA (CNGA2:CNGA4:CNGB1b at 2:1:1)
Description: First, the effect of the compounds on olfactory CNG channels with natural composition was tested. […] To determine the potency of the ligands, full concentration‐activation relationships were generated. These relationships were fitted with Equation 1 (Experimental Section), yielding the concentration of half maximum activation (EC 50) and the Hill coefficient (H a).
(§1) Molecular biology and heterologous expression of CNG and HCN channels: The subunits CNGA2 (accession No. AF126808), CNGA4 (accession no. U12623) and CNGB1b (accession no. AF068572) of rat olfactory channels as well as mouse HCN2 channels (NM008226) were subcloned in front of the T7 promoter of pGEMHEnew. The corresponding cRNAs were produced with the mMESSAGE mMACHINE T7 Kit (Ambion, Austin, TX, USA).
(§2) Oocytes at stages IV and V were injected with 50–130 ng cRNA encoding either CNGA2, CNGA2 : CNGA4 : CNGB1b (2 : 1 : 1 ratio) or HCN2 channels either manually or mediated by an injection robot (RoboInject®). The injected oocytes were incubated at 18 °C for up to 6 days in Barth's medium containing (in mM) 84 NaCl, 1 KCl, 2.4 NaHCO3, 0.82 MgSO4, 0.41 CaCl2, 0.33 Ca(NO3)2, 7.5 TRIS, cefuroxime (4.0 μg/mL) and penicillin/streptomycin (100 μg/mL), pH 7.4.
(§3) Electrophysiology: Macroscopic currents were recorded in inside‐out patches of the oocytes expressing hundreds to several thousand of the desired channels by using the patch‐clamp technique. The patch pipettes were pulled from quartz tubing (P‐2000, Sutter Instrument, Novato, USA) with an outer and inner diameter of 1.0 and 0.7 mm (VITROCOM, New Jersey, USA). The corresponding pipette resistance was 0.9–2.3 MΩ. The bath and pipette solution contained (in mM): 150 KCl, 1 EGTA, 20 HEPES (pH 7.4) for CNG channel measurements. For HCN channel measurements the bath solution contained (in mM): 100 KCl, 10 EGTA, 10 HEPES (pH 7.2) and the pipette (in mM) 120 KCl, 10 HEPES, 1 CaCl2 (pH 7.2). All experiments were performed at room temperature by using an Axopatch 200B amplifier (Axon Instruments, Foster City, CA, USA). Electrophysiology was controlled by the Patchmaster‐software (HEKA Elektronik Dr. Schulze GmbH, Lambrecht, Germany). The sampling rate was 5 kHz and the filter implemented in the amplifier (4‐pole Bessel) was set to 2 kHz. Measurements in HCN2 channels were started 3.5 minutes after patch excision, to minimize run down phenomena.18 The solutions with the different ligand concentrations to be studied were applied by a multi‐barrel device to the patches with a flow rate of 0.8 to 1.2 mL/min. The concentration of the fluorescent ligands was verified by UV/Vis spectroscopy.
(§4) where I is the actual current amplitude and I max the maximum current amplitude at saturating concentration of each cyclic nucleotide. EC 50 is the ligand concentration generating half maximum current and H a the respective Hill coefficient.

[2] = biological target: T2, Homotetrameric CNGA2 channels (Rattus norvegicus, UniProt Q00195); assay: Patch-clamp activation of homotetrameric CNGA2 channels, inside-out patches of Xenopus oocytes; conditions: for H a (Hill coefficient of activation) / EC50: inside-out patches; for EC50: concentration of half maximum activation
T2 construct: expressed in transfected cells; host or cells: Xenopus laevis oocytes injected with CNGA2 cRNA
T2 sequence (Q00195 1-664): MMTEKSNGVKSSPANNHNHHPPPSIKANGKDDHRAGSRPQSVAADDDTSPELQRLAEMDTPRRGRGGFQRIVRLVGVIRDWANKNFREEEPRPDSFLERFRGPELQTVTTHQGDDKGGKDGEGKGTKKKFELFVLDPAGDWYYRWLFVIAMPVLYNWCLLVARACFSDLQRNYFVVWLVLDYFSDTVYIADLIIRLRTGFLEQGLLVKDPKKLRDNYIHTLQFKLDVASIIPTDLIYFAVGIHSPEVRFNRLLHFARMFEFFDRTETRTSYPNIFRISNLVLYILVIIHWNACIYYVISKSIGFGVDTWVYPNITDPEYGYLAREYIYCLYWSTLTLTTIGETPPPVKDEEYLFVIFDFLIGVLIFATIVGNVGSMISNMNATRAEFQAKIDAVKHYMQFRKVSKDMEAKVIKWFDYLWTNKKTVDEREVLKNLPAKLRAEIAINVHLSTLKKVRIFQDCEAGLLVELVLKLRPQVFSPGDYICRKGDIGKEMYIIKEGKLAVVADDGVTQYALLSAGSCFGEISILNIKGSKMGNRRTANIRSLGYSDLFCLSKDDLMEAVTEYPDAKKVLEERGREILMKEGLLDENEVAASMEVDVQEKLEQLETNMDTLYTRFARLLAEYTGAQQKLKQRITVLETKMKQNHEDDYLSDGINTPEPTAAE
Source text: Moreover, we studied the effect of the nucleotide derivatives on homotetrameric CNGA2 channels.
as §1, §2, §3, §4

[3] = biological target: T3, homotetrameric HCN2 channels (Mus musculus, UniProt O88703); assay: Patch-clamp activation of homotetrameric HCN2 channels, inside-out patches of Xenopus oocytes; conditions: 5 μM ligand; pulse from -30 mV to -130 mV; compared with saturating cAMP (20 μM)
T3 construct: expressed in transfected cells; host or cells: Xenopus laevis oocytes injected with HCN2 cRNA
T3 sequence (O88703 1-863): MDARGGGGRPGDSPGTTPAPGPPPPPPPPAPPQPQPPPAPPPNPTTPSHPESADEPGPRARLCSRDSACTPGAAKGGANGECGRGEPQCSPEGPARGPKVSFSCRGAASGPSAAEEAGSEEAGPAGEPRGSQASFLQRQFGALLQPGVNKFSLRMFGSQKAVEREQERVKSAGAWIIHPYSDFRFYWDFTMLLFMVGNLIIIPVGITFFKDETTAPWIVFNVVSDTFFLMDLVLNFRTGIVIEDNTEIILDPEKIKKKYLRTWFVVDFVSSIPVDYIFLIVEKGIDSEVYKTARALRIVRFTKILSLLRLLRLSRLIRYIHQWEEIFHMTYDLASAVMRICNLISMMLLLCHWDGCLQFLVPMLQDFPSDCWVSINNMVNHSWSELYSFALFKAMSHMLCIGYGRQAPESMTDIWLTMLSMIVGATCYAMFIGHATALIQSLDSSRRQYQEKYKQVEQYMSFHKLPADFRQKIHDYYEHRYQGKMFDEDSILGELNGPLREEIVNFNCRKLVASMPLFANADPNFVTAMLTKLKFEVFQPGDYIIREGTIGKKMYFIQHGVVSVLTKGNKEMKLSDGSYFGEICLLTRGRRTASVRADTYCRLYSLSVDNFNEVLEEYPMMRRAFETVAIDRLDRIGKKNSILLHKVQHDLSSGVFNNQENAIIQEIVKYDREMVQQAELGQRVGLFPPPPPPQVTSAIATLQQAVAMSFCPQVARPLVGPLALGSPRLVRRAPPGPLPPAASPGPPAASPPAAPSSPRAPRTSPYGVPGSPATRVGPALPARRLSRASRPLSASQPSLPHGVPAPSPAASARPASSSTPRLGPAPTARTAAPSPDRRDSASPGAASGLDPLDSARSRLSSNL
Description: On these channels the potency of cGMP and its derivatives is negligibly small. These measurements were performed in inside‐out patches as well. The channels were activated from a holding potential of −30 mV by a hyperpolarizing voltage pulse to −130 mV, followed by a short pulse to −100 mV, as described in the inset of Figure 3A. All recordings were carried out in the absence of a ligand at first and then with a solution containing 5 μM of the cyclic nucleotide to be tested.
as §1
The oocytes were incubated for 105 min in Ca^2+‐free Barth's solution containing collagenase A (3 mg/mL; Roche, Grenzach‐Wyhlen, Germany) and (in mM) 82.5 NaCl, 2 KCl, 1 MgCl2, 5 HEPES, pH 7.4. […]
Electrophysiology: Macroscopic currents were recorded in inside‐out patches of the oocytes expressing hundreds to several thousand of the desired channels by using the patch‐clamp technique. […]

T1 sequence (Q64359 whole entry, one chain of several): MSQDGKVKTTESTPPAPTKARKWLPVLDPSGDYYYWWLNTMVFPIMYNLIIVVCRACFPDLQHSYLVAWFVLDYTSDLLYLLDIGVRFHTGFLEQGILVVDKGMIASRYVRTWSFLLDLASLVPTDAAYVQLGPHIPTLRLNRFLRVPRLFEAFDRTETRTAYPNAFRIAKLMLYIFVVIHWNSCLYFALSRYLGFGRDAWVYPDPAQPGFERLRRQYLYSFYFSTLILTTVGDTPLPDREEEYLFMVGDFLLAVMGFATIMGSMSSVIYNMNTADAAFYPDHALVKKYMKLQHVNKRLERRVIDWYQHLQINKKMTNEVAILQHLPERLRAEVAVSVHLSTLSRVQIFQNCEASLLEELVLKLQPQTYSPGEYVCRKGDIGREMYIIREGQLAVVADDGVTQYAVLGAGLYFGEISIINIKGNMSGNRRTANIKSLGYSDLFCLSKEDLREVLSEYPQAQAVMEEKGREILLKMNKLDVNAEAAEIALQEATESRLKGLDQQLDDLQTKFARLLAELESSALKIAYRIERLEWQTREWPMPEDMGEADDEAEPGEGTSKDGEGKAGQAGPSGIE
T1 sequence (A0A8I5ZN27 1-858 isoform A0A8I5ZN27-2, one chain of several): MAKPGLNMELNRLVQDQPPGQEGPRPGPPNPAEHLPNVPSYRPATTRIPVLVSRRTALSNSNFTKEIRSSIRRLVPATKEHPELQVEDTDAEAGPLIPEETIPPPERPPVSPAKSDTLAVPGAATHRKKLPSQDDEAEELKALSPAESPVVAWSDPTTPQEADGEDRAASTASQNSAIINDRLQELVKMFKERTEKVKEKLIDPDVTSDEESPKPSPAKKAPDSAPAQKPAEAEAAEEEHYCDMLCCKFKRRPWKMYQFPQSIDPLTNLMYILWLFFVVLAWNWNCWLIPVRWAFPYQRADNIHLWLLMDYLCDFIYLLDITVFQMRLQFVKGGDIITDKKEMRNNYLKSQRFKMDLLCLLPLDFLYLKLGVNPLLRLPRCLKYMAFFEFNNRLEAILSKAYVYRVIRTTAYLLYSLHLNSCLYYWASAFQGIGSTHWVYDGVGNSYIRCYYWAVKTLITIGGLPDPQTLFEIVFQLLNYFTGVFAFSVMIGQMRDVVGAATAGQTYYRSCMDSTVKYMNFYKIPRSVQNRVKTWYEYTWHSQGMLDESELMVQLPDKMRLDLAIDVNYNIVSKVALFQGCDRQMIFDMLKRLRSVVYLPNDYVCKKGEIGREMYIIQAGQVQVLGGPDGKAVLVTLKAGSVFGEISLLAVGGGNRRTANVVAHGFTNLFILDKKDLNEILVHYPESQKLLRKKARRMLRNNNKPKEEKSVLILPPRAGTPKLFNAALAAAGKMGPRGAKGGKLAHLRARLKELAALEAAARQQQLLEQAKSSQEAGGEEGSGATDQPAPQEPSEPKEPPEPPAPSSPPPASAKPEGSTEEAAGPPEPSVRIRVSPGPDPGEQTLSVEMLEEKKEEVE

NCCCCCc1ccc(-c2nc3c(=O)[nH]c(N)nc3n2[C@@H]2O[C@@H]3COP(=O)(O)O[C@H]3[C@H]2O)cc1 [Compound 13]
H a (Hill coefficient of activation) [1]: 1.74±0.11 | EC50 [1]: 7020 ± 260 nM | H a (Hill coefficient of activation) [2]: 2.28±0.28 | EC50 [2]: 2410 ± 150 nM

Nc1ncnc2c1ncn2[C@@H]1O[C@@H]2COP(=O)(O)O[C@H]2[C@H]1O [cAMP, reference compound]
H a (Hill coefficient of activation) [1]: 2.08±0.12

Nc1nc2c(ncn2[C@@H]2O[C@@H]3COP(=O)(O)O[C@H]3[C@H]2O)c(=O)[nH]1 [cGMP, reference compound]
H a (Hill coefficient of activation) [1]: 2.11±0.23 | EC50 [1]: 1360 ± 70 nM | H a (Hill coefficient of activation) [2]: 2.48±0.05 | EC50 [2]: 1770 ± 20 nM

NCCCCCc1ccc(Sc2nc3c(N)ncnc3n2[C@@H]2O[C@@H]3COP(=O)(O)O[C@H]3[C@H]2O)cc1 [Compound 6]
effect at elevated concentrations ([1]; elevated concentrations): inhibitory effect | H a (Hill coefficient of activation) [1]: 2.25±0.08 | EC50 [1]: 750 ± 10 nM | H a (Hill coefficient of activation) [2]: 2.51±0.05 | EC50 [2]: 4720 ± 40 nM | effect on HCN2 current (activation speed and current amplitude) [3]: accelerated the current and enhanced the amplitude

CC1(C)C2=C3C=C4C5=[N+](CCC4OC3CCN2c2ccc(CC(=O)NCCCCCc3ccc(Sc4nc6c(N)ncnc6n4[C@@H]4O[C@@H]6COP(=O)(O)O[C@H]6[C@H]4O)cc3)cc21)c1ccc(S(=O)(=O)[O-])cc1C5(C)C (stereo partly shown) [Compound 7]
H a (Hill coefficient of activation) [1]: 2.26±0.29 | EC50 [1]: 900 ± 40 nM | H a (Hill coefficient of activation) [2]: 1.39 and 1.39±0.07 | EC50 [2]: 10000 ± 500 nM | efficacy of channel activation ([2]; relative to maximum activation): did not generate maximum activation at 100 μM

NCCCCCc1ccc(Sc2nc3c(=O)[nH]c(N)nc3n2[C@@H]2O[C@@H]3COP(=O)(O)O[C@H]3[C@H]2O)cc1 [Compound 9]
H a (Hill coefficient of activation) [1]: 1.55±0.08 | EC50 [1]: 370 ± 10 nM | EC 50 (in words) [2]: nanomolar range | H a (Hill coefficient of activation) [2]: 2.52±0.08 | EC50 [2]: 250 ± 10 nM

NCCCCCc1ccc(-c2nc3c(N)ncnc3n2[C@@H]2O[C@@H]3COP(=O)(O)O[C@H]3[C@H]2O)cc1 [Compound 12]
agonist efficacy ([1]; current maxima normalized to saturating cAMP (500 μM)): only a partial agonist | H a (Hill coefficient of activation) [1]: 2.23±0.05 | EC50 [1]: 10700 ± 100 nM | H a (Hill coefficient of activation) [2]: 2.14±0.10 | EC50 [2]: 16300 ± 500 nM | effect on HCN2 current (activation speed and current amplitude) [3]: no effect; also recorded: almost ineffective
